What all share (assay): KinomeScan profiling
What all share (type): binding

In assay [1] the target is T1, LATS1 (Homo sapiens, UniProt O95835).
T1 construct: purchased KinomeScan®
T1 sequence (O95835 1-1130): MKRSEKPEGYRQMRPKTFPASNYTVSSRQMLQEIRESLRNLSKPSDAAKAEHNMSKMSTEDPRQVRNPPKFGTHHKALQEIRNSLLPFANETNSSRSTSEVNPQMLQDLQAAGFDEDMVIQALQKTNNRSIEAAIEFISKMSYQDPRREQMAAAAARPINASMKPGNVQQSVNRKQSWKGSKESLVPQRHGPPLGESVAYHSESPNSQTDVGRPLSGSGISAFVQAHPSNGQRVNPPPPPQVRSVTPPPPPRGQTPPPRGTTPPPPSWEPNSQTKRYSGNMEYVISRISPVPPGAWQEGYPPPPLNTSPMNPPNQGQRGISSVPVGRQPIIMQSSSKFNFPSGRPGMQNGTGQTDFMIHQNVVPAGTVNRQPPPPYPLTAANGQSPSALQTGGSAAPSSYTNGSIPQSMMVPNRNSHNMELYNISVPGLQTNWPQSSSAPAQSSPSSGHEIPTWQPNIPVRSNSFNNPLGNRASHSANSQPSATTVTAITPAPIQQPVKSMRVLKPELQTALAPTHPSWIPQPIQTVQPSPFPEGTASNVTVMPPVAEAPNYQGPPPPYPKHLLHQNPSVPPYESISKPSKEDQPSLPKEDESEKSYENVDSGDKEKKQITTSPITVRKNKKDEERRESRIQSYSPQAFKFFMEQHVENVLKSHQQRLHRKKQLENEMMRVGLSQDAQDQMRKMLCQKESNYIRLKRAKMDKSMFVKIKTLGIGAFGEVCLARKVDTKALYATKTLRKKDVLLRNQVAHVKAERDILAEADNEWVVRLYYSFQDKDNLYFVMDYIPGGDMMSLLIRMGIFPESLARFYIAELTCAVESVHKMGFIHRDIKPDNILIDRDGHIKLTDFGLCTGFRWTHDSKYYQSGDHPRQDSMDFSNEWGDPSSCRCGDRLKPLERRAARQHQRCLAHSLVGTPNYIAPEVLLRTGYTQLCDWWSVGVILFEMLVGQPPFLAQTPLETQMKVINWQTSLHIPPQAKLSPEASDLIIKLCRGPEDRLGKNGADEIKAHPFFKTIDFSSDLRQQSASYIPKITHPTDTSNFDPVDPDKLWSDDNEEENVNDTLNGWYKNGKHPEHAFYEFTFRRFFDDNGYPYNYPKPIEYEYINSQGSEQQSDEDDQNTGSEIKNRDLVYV
As to conditions: LATS1, 1 μM; read-out: % control. The gist of the method:
(§1)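 Selectivity was assessed by binding competition at 1 μM against 468 kinases. Values below 35% of control define an interaction.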

Assay [2] addresses T2, SNRK (Homo sapiens, UniProt Q9NRH2).
T2 construct: purchased KinomeScan® (panel service)
T2 sequence (Q9NRH2 1-765): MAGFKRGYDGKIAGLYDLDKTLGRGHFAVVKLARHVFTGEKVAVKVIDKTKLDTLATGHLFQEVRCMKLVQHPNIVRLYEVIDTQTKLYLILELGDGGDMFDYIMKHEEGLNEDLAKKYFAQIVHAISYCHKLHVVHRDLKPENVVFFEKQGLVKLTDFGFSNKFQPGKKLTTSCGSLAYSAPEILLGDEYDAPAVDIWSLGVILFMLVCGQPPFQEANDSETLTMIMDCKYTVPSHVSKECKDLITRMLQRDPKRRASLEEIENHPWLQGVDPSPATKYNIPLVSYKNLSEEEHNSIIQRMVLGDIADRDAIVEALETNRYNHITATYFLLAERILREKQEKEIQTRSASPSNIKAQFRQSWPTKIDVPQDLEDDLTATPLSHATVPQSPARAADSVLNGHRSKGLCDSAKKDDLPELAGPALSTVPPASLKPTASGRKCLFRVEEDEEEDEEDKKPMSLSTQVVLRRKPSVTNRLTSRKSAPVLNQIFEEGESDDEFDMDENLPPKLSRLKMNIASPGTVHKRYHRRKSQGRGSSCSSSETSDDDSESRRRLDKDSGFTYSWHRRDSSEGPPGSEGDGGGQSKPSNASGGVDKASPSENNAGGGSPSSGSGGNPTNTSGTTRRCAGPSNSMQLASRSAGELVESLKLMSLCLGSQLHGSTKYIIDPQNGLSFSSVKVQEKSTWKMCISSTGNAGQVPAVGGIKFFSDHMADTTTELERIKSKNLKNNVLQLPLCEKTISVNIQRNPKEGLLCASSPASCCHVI
As to conditions: read-out: % control. The gist of the method:
as §1

The target of assay [3] is T3, RIPK1 (Homo sapiens, UniProt Q13546).
T3 sequence (Q13546 1-671): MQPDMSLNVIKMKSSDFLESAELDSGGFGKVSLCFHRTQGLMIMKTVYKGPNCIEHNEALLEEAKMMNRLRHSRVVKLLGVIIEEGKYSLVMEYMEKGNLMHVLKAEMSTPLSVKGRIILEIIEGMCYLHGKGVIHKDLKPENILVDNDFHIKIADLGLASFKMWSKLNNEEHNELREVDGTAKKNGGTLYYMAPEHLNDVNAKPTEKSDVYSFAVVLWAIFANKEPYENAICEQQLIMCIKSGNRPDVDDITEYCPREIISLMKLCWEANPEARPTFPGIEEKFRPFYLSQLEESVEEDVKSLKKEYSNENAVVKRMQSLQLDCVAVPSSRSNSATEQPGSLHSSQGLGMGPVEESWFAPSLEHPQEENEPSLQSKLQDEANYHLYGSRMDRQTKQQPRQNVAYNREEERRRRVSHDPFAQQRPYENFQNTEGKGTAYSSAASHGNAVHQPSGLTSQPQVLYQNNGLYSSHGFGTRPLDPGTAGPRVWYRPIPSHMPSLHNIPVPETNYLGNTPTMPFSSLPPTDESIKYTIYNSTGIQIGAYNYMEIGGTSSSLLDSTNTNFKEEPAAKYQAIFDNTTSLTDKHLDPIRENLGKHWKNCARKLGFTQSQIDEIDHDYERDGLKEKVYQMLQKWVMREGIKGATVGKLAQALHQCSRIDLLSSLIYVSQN
As to conditions: RIPK1, 1 μM; read-out: % control. The gist of the method: as §1

For `CNc1c(-c2ccc(C(=O)N3CCC(N4CCOCC4)CC3)cc2)cnc2[nH]cc(Cl)c12` [Compound 96, (4-(3-chloro-4-(methylamino)-1H-pyrrolo[2,3-b]pyridin-5-yl)phenyl)(4-morpholinopiperidin-1-yl)methanone], the remaining binding at 1 µM amounted to 100% in assay [1], 100% in assay [2] and 44% in assay [3].
As for `O=C(c1ccc(-c2cnc3[nH]cc(Cl)c3c2NC2CCCC2)cc1)N1CCC(N2CCOCC2)CC1` [Compound 101, (4-(3-chloro-4-(cyclopentylamino)-1H-pyrrolo[2,3-b]pyridin-5-yl)phenyl)(4-morpholinopiperidin-1-yl)methanone], the values for the remaining binding at 1 µM in assay [1], in assay [2] and in assay [3] were 100%, 100% and 47%, respectively.
Consider `CNc1c(-c2cnn([C@H]3CCN(C(C)=O)C[C@@H]3F)c2)cnc2[nH]cc(Cl)c12` [Compound 77, 1-((3S,4S)-4-(4-(3-chloro-4-(methylamino)-1H-pyrrolo[2,3-b]pyridin-5-yl)-1H-pyrazol-1-yl)-3-fluoropiperidin-1-yl)ethan-1-one], for which the remaining binding at 1 µM in assay [1] was 91%; in assay [2], 100%; in assay [3] it was 19%.

The values above are taken from patent US12275731B2, “Azaindole inhibitors of wild-type and mutant forms of LRRK2” (DANA-FARBER CANCER INSTITUTE, INC., priority 2018, dated 2025).
